{"source": "patent US5250305A", "about": "“Process for enzymatic ultrafiltration of deamidated protein” (The United States of America as represented by the …, priority 1990, dated 1993)", "test_system": "PGase", "assay": "Km and Vmax of PGase substrates (Lineweaver-Burk plot)", "type": "biochemical, Bacillus circulans", "conditions": "0.05 M phosphate buffer, pH 7.0, 30° C.", "method": "A 1 mL enzyme preparation containing 0.25-0.50 mg protein was added to 2-5 mL substrate in 0.05 M phosphate buffer, pH 7.0. The substrate concentrations were 0.2% CBZ-L-Gln, 0.2% BOC-Gln-Pro and 0.2% peptone type IV. Peptone solutions (5%) were ultrafiltered prior to use, through the 30 kd spiral membrane incubated at 30° C. for 30 or 60 min, then the ammonia constant of the samples was determined with a model 95-10 ammonia electrode (Orion Research Inc., Cambridge, Mass.).\nThe effects of the molarity and pH of the sodium phosphate buffer on PGase activity were studied. The progress of the PGase deamidation reaction of Peptone IV in 0.05 M phosphate buffer, pH 7.0, as a function of time was measured at 25° C. and 30° C.", "note": "Peptide text beside a SMILES is read from it.", "data": [{"smiles": "NC(=O)CC[C@H](NC(=O)OCc1ccccc1)C(=O)O", "note": "[CBZ-glutamine, CBZ-L-glutamine]", "values": [{"measurement": "Km", "value": 67, "unit": "µM"}]}, {"smiles": "CC(C)(C)OC(=O)N[C@@H](CCC(N)=O)C(=O)N1CCC[C@H]1C(=O)O", "note": "[BOC-glutamine-proline, t-BOC-L-glutaminyl-L-proline] (HELM PEPTIDE1{[CC(C)(C)OC(=O)[*:2]].Q.P}$$$$V2.0)", "values": [{"measurement": "Km", "value": 143, "unit": "µM"}, {"measurement": "Vmax", "value": 0.52, "unit": "µmol/min/mg"}]}]}
